Values quoted from earlier work in patent US20080200497A1, “Hepatitis C Inhibitor Peptide Analogs” (priority 2005, published 2008).

System: hepatitis C virus
Conditions: two day clinical trial, patients infected with the hepatitis C virus

COc1ccc2c(O[C@@H]3C[C@H]4C(=O)N[C@]5(C(=O)O)C[C@H]5/C=C\CCCCC[C@H](NC(=O)OC5CCCC5)C(=O)N4C3)cc(-c3csc(NC(C)C)n3)nc2c1 [BILN 2061]
reduction of viral loads: effective in rapidly reducing viral loads
